Source: US5126057A, “Disinfecting with N,N'-dihaloimidazolidin-4-ones” (Auburn Research Foundation, priority 1991, dated 1992)
Values after ≈ are worked out from the molar mass of the structure shown.

How the values were obtained:
Assay type in all cases: physicochemical
physchem = details: for solubility: water, solubility in water
Procedure: In method (a) 47.4 grams (0.3 mole) of 2,2,5,5-tetramethylimidazolidine-4-thione was dissolved in 1.2 liters of 3 Normal sodium hydroxide solution (3.6 moles) in a 2 liter flask. The flask and its contents were cooled to 5° C. using an ice bath, and chlorine gas was bubbled into the mixture while stirring until the pH of the solution reached 7.0. The temperature of the mixture was not allowed to rise above 10° C. during this process. The N,N'-dichloroimidazolidin-4-one product precipitated as a white solid. Following addition of 800 milliliters of water to the flask, the solid product was recovered by suction filtration. The product was then purified by dissolving it in hexane, allowing the impurities and remaining water to settle, and recovery by evaporation of the volatile hexane layer which was separated from the impurity/water layer. The product yield was 53.9 grams or 85% of that theoretically expected. Elemental analysis of the product (1,3-dichloro-2,2,5,5-tetramethylimidazolidin-4-one) gave the following results: (calculated/found) % carbon 39.82/39.86, % hydrogen 5.73/5.50, % nitrogen 13.27/13.24, and % chlorine 33.59/32.88. […] Analysis of the product by proton NMR and infrared spectroscopy yielded the following results:
5.1 Grams (0.036 mole) of 2,2,5,5-tetramethylimidazolidin-4-one prepared as in example 2 was dissolved in 88 milliliters of 1 Normal sodium hydroxide solution (0.088 mole) in a 250 milliliter flask. While maintaining this mixture at 10° C. or below using an ice bath and stirring, 12.8 grams (0.08 mole) of liquid bromine was added dropwise. The product 1,3-dibromo-2,2,5,5-tetramethylimidazolidin-4-one precipitated from the mixture as a pale yellow solid. The product was recovered by suction filtration and purified by recrystallization from hexane. The product yield was 9.2 grams or 85% of that theoretically expected. Elemental analysis of the product (1,3-dibromo-2,2,5,5-tetramethylimidazolidin-4-one) gave the following results: (calculated/found) % carbon 28.00/27.80, % hydrogen 4.00/4.07, % nitrogen 9.33/9.39, and % bromine 53.33/52.09. […] Analysis of the product by proton NMR and infrared spectroscopy yielded the following results:
6.4 Grams (0.045 mole) of 2,2,5,5-tetramethylimidazolidin-4-one prepared as in example 2 was dissolved in 55 milliliters of 1 Normal sodium hydroxide solution (0.055 mole) in a 250 milliliter flask. While maintaining the reaction mixture at a temperature of 5°-10° C. by use of an ice bath and stirring, 4.0 grams (0.025 mole) of liquid bromine was added dropwise. The reaction mixture was stirred at ice bath temperature for an additional 1 hour and then for 1-2 hours at cold water bath conditions (10°-20° C.). Following cooling the mixture below 10° C. again, 50 milliliters of 1 Normal sodium hydroxide solution (0.05 mole) was added, and chlorine gas was bubbled in while stirring at 5°-10° C. until the pH reached 6-7. The 1-bromo-3-chloro-2,2,5,5-tetramethylimidazolidin-4-one product precipitated as a white solid. The product was recovered by suction filtration and purified by recrystallization from hexane. The product yield was 11.2 grams or 97% of that theoretically expected. Elemental analysis of the product gave the following results: (calculated/found) % carbon 32.88/32.68, % hydrogen 4.70/4.74, % nitrogen 10.96/10.83, % bromine 31.31/33.37, % chlorine 13.89/12.67. The rather high and low found values as compared to the theoretical values for bromine and chlorine, respectively, indicate that the product was contaminated with a small amount of 1,3-dibromo-2,2,5,5-tetramethylimidazolidin-4-one. […] Analysis of the product by proton NMR and infrared spectroscopy yielded the following results: […]

[1] = Hydrolysis equilibrium constant in demand-free water; details: pH 7.0, 24°±1° C.
Procedure: The equilibrium constant for the hydrolysis reaction of 1,3-dichloro-2,2,5,5-tetramethylimidazolidin-4-one to form 1-chloro-2,2,5,5-tetramethylimidazolidin-4-one and free chlorine (Cl^+) was determined at pH 7.0 and 24°±1° C. This was accomplished by preparing a solution of the 1,3-dichloro-2,2,5,5-tetramethylimidazolidin-4-one in demand-free 0.05 molar sodium phosphate buffer (pH 7.0) and allowing the solution to equilibrate while stirring for 1 hour. Then the DPD/FAS technique (as in example 7) was used to determine the free and total chlorine concentrations in the equilibrated solution. The concentration of combined 1,3-dichloro-2,2,5,5-tetramethylimidazolidin-4-one was calculated from the difference between the measured total and free chlorine concentrations. The hydrolysis equilibrium constant was then calculated as the square of the molar free chlorine concentration divided by the molar combined chlorine concentration. For a starting molar total chlorine concentration of 4.441×10^-3 moles per liter, at equilibrium the combined chlorine concentration was 4.428×10^-3 moles per liter, and the free chlorine concentration was 1.269×10^-5 moles per liter. […] For a starting molar total chlorine concentration of 1.764×10^-3 moles per liter, at equilibrium the combined chlorine concentration was 1.759×10^-3 moles per liter, and the free chlorine concentration was 5.360×10^-6 moles per liter. […] The average equilibrium constant for the two separate determinations was thus 2.6±1.0×10^-8.

[2] = Laboratory stability in halogen demand-free water (DFW), iodometric titration; details: for Percent Chlorine Remaining: DFW, 22° C.
Procedure: The stability of 1,3-dichloro-2,2,5,5-tetramethylimidazolidin-4-one (Compound 1) in halogen demand-free water was determined at 22° C. and pH values of 4.5, 7.0, and 9.5, and the results were compared to those for free chlorine as supplied by calcium hypochlorite. The demand-free water (DFW) was prepared by chlorination of distilled, deionized water buffered to the appropriate pH followed by dechlorination (of the excess free chlorine) by exposure to direct sunlight until no free chlorine remained. This treatment insured that all halogen demand in the water was neutralized. Then Compound 1 and calcium hypochlorite were separately dissolved in identical DFW (buffered to an appropriate pH) solutions to the same final total chlorine concentrations (10 milligrams per liter potential positive chlorine). The solutions in separate flasks, which were stoppered with porous, sterile cotton plugs to allow free exchange with laboratory air, were then held at a constant temperature of 22° C. by means of a controlled water bath for a period of several weeks. Aliquots were withdrawn periodically (at least weekly), and the total positive chlorine remaining was determined in triplicate by standard iodometric titration. […]
The stabilities of 1,3-dibromo-2,2,5,5-tetramethylimidazolidin-4-one (Compound 4) and 1-bromo-3-chloro-2,2,5,5-tetramethylimidazolidin-4-one (Compound 5) in halogen demand-free water (DFW) were determined at 22° C. and pH values of 7.0 and 9.5 using the same procedures as discussed under example 9. Given the instability of Compound 1 at pH 4.5 (example 9), it was deemed unnecessary to test compounds 4 and 5 at that pH. The two compounds were dissolved in DFW buffered to the appropriate pH in separate flasks and held at a temperature of 22° C. by means of a constant temperature bath. The starting concentrations of total potential positive halogen in the two solutions were 22.6 milligrams per liter for Compound 4 and 16.25 milligrams per liter for Compound 5; these concentrations represent the molar equivalents in total potential positive halogen to that used for Compound 1 in example 9. The solutions were analyzed in the manner described in example 9.

[3] = Stability in synthetic halogen demand water (SDW); details: SDW, 4° C.
Procedure: A synthetic halogen demand water (SDW) was prepared by mixing the following substances with demand-free water (DFW): 375 milligrams per liter of each of the inorganic salts sodium chloride, potassium chloride, calcium chloride, and magnesium chloride; 50 milligrams per liter of Bentonite clay; 30 milligrams per liter of humic acid; 0.01 percent final concentration of heat-treated horse serum; and 5×10^5 cells per milliliter of heat-killed Saccharomyces cerevisiae yeast cells. The SDW solution was buffered with 0.01 Molar borate/sodium hydroxide to a pH of 9.5 and held at 4° C. during the experiments. The conditions of high ionic strength, turbidity, and organic material, and alkaline pH at low temperature, are viewed as a worst-case scenario for disinfection applications and thus should provide the optimum test of stability for the new compounds.
In separate flasks were dissolved compounds 1, 2, 3, and 5 to a starting concentration of 10 milligrams per liter total potential positive chlorine or its molar equivalent (16.25 milligrams per liter) in total potential positive halogen for Compound 5. Aliquots were withdrawn frequently over a period of more than 90 hours, and the percent positive halogen remaining was determined by standard iodometric titration.

[4] = Stability in demand-free water exposed to direct sunlight; details: DFW, direct sunlight, 22-24° C.
Procedure: The stabilities of compounds 1,5, and free chlorine from calcium hypochlorite (Compound 2) in water exposed to direct sunlight were determined. Each compound at the 10 milligrams per liter total chlorine concentration level (or at the molar equivalent for total halogen for Compound 5) was dissolved in 85 milliliters of demand-free water buffered at pH 7.0 in separate 100 milliliter beakers which were placed in a temperature-controlled water bath (22°-24° C.), and the bath containing the solutions was placed on the roof of the chemistry building at Auburn University exposed to direct sunlight during August 1988. Total potential positive halogen assays were made periodically on aliquots withdrawn over a 10 hour period using the standard iodometric titration technique.

[5] = starting total chlorine 1.764×10^-3 moles per liter
[6] = starting total chlorine 4.441×10^-3 moles per liter

With `CC1(C)C(=O)N(Cl)C(C)(C)N1Cl` [1,3-dichloro-2,2,5,5-tetramethylimidazolidin-4-one] the solubility in water (physchem) was 0.224 grams in 100 milliliters of water, the solubility (physchem) was 1380 µg/mL (≈ 6.54 mM) and the “average hydrolysis equilibrium constant” value ([1]; average of two determinations) was 2.6±1.0×10^-8. For the same compound, the “combined chlorine concentration at equilibrium” value [1, 5] was 1.759×10^-3 moles per liter, the “free chlorine concentration at equilibrium” value [1, 5] was 5.360×10^-6 moles per liter and the hydrolysis equilibrium constant [1, 5] was 1.63×10^-8. The “combined chlorine concentration at equilibrium” value [1, 6] was 4.428×10^-3 moles per liter, the “free chlorine concentration at equilibrium” value [1, 6] was 1.269×10^-5 moles per liter and the hydrolysis equilibrium constant [1, 6] was 3.64×10^-8.
In the case of `CC1(C)C(=O)N(Cl)C(C)(C)N1Br` [1-bromo-3-chloro-2,2,5,5-tetramethylimidazolidin-4-one], the solubility in water (physchem) is reported as 0.193 grams in 100 milliliters of water and the solubility (physchem) is reported as 1020 µg/mL (≈ 3.99 mM).
With `CC1(C)C(=O)N(Br)C(C)(C)N1Br` [1,3-dibromo-2,2,5,5-tetramethylimidazolidin-4-one] the solubility in water (physchem) was 0.120 grams in 100 milliliters of water and the solubility (physchem) was 720 µg/mL (≈ 2.4 mM).
With `[Ca+2].[O-]Cl.[O-]Cl` [Compound 2, calcium hypochlorite, reference compound] the “Percent Chlorine Remaining” value ([2]; pH 4.5 (acetate), 1 week, 10080 min) was 91.8%, the “Percent Chlorine Remaining” value ([2]; pH 4.5 (acetate), 2 weeks, 20160 min) was 86.2% and the “Percent Chlorine Remaining” value ([2]; pH 4.5 (acetate), 3 weeks, 30240 min) was 80.8%. For the same compound, the “Percent Chlorine Remaining” value ([2]; pH 4.5 (acetate), 4 weeks, 40320 min) was 76.4%, the “Percent Chlorine Remaining” value ([2]; pH 4.5 (acetate), 5 weeks, 50400 min) was 71.5% and the “Percent Chlorine Remaining” value ([2]; pH 4.5 (acetate), 6.14 weeks, 61891.2 min) was 65.0%. For the same compound, the “Percent Chlorine Remaining” value ([2]; pH 7.0 (phosphate), 1 week, 10080 min) was 91.8%, the “Percent Chlorine Remaining” value ([2]; pH 7.0 (phosphate), 2 weeks, 20160 min) was 85.0% and the “Percent Chlorine Remaining” value ([2]; pH 7.0 (phosphate), 3 weeks, 30240 min) was 79.6%. The “Percent Chlorine Remaining” value ([2]; pH 7.0 (phosphate), 4 weeks, 40320 min) was 70.6%, the “Percent Chlorine Remaining” value ([2]; pH 7.0 (phosphate), 5 weeks, 50400 min) was 63.4% and the “Percent Chlorine Remaining” value ([2]; pH 7.0 (phosphate), 6.14 weeks, 61891.2 min) was 54.7%. The “Percent Chlorine Remaining” value ([2]; pH 9.5 (borate/NaOH), 1 week, 10080 min) was 88.9%, the “Percent Chlorine Remaining” value ([2]; pH 9.5 (borate/NaOH), 2 weeks, 20160 min) was 79.0% and the “Percent Chlorine Remaining” value ([2]; pH 9.5 (borate/NaOH), 3 weeks, 30240 min) was 71.2%. The “Percent Chlorine Remaining” value ([2]; pH 9.5 (borate/NaOH), 4 weeks, 40320 min) was 60.3%, the “Percent Chlorine Remaining” value ([2]; pH 9.5 (borate/NaOH), 5 weeks, 50400 min) was 50.1% and the “Percent Chlorine Remaining” value ([2]; pH 9.5 (borate/NaOH), 6.14 weeks, 61891.2 min) was 38.5%. For the same compound, the “Percent Halogen Remaining” value ([3]; pH 9.5, 0.5 hrs) was 51.5%, the “Percent Halogen Remaining” value ([3]; pH 9.5, 1.0 hrs) was 46.4% and the “Percent Halogen Remaining” value ([3]; pH 9.5, 2.5 hrs) was 39.6%. The “Percent Halogen Remaining” value ([3]; pH 9.5, 4.2 hrs) was 39.6%, the “Percent Halogen Remaining” value ([3]; pH 9.5, 7.5 hrs) was 36.2% and the “Percent Halogen Remaining” value ([3]; pH 9.5, 24.0 hrs) was 31.3%. For the same compound, the “Percent Halogen Remaining” value ([3]; pH 9.5, 76.5 hrs) was 21.5%, the “Percent Halogen Remaining” value ([4]; pH 7.0, 3.0 hrs) was 26.0% and the “Percent Halogen Remaining” value ([4]; pH 7.0, 5.0 hrs) was 6.9%. The “Percent Halogen Remaining” value ([4]; pH 7.0, 10.0 hrs) was 0.0%.
With `CC1(C)C(=O)N(Br)C(C)(C)N1Br` [Compound 4, 1,3-dibromo-2,2,5,5-tetramethylimidazolidin-4-one] the remaining at 23.52 h ([2]; demand-free water, pH 9.5) was 91.4%, the remaining at 72.24 h ([2]; demand-free water, pH 9.5) was 71% and the remaining at 168 h ([2]; demand-free water, pH 9.5) was 36%. It also gave a remaining at 336 h ([2]; demand-free water, pH 9.5) of 4.8%.
